Measurements: patent publication US11999699B2, “Substituted pyrazole amides” (GRUENENTHAL GMBH, priority 2021, dated 2024)

Target: T1, human NaV1.8 (Homo sapiens, UniProt Q9Y5Y9)
T1 construct: The following NaV1.8 recombinant cell line was used for recordings: HEK-NaV1.8 (NM 006514.1); expressed in transfected cells; host or cells: HEK (recombinant cell line HEK-NaV1.8)
Assay: Electrophysiology: automated whole-cell voltage-clamp (patch clamp, Qube384) recordings of sodium currents in HEK-NaV1.8 cells
Format: cell-based
Details: potency data either taken from inactivated or resting state, read-out: Potency category (human NaV1.8 IC50)
Method: Electrophysiology: Voltage-Clamp Recordings
The following NaV1.8 recombinant cell line was used for recordings: HEK-NaV1.8 (NM 006514.1) with in (NM 018400.3).
Sodium currents were measured using the patch clamp technique in the whole-cell configuration using the Qube384 (Sophion A/S, Copenhagen, Denmark) automated voltage clamp platform. “Multi hole” plates were used for the cell line expressing NaV1.8 while “single hole” plates were used for the recombinant cell lines expressing the other subtypes. Appropriate filters (for minimum seal resistance and minimum current size) and series resistance compensation (for high quality sodium channel recordings) were applied. Data was collected at ambient room temperature.
The recording extracellular solution contained (in mM): NaCl 145 mM, KCl 4 mM, CaCl2 2 mM, MgCl2 1 mM, HEPES 10 mM, Glucose 10 mM, pH 7.4 (NaOH). The intracellular recording solution contained (in mM): CsF 120 mM, CsCl 20 mM, NaCl 10 mM, EGTA 10 mM, HEPES 10 mM, pH 7.2 (CsOH). Currents were recorded at 25 kHz sampling frequency and filtered at 5 kHz. Series resistance compensation was applied at 65%.
Vehicle (VEH) is the control condition where cells are exposed to 0.3% DMSO without compound. All runs include VEH controls being exposed to the same voltage protocols to assess non-compound related phenomena such as run down and then used to isolate compound dependent effects on currents.
To check for state-dependence inhibition, the following voltage-sequence was applied every 20 seconds:
From a resting membrane potential of −120 mV, the first test pulse (P1; 20 ms to −10 mV) was applied to check for channels in the Resting State followed by a brief recovery (20 ms to −120 mV), then holding the membrane voltage to V112 (4 seconds at voltage to obtain half the channel at Rest and half Inactivated) with a subsequent second test pulse (P2; 20 ms to −10 mV) to check for channels in the Inactivated State, followed by another brief recovery (20 ms to −120 mV) and a final third test pulse (P3; 20 ms to −10 mV) to check for recovered channels.
To check for frequency-dependent inhibition, a 10 Hz protocol and a 20 Hz protocol were applied; namely,
From a resting membrane potential of −120 mV, 40-pulses (10 ms to −10 mV) was applied at 10 Hz (at 100 ms between pulses) and then at 20 Hz (at 50 ms between pulses).
Each parameter was recorded (P1, P2, P3, P40 from 10 Hz and P40 from 20 Hz) during a control period (lasting 5 minutes) when establishing the baseline and during compound period (lasting ˜12 minutes) when test compound (or vehicle) was applied. For each parameter, the value at the end of the compound period was normalized to the vehicle baseline; as follows
To adjust for any variance in the Na^+ current signal during the compound period (owing to cumulative inactivation independent of compound or shifts in biophysics over time), a dedicated segment of the recording wells in each 384 plate were dedicated to having only vehicle exposure. These vehicle-only recordings were used to correct for any apparent “run-up” or “run-down” in the experiment.
The adjusted inhibition was calculated as follows: […]
Percent inhibition was determined and IC50 values were calculated using a 4 parameter logistic model within XLFit Software (IDBS, Boston MA):
[formula] where A and B are the maximal and minimum inhibition respectively, C is the IC50 concentration and D is the (Hill) slope.
The potency data was either taken from inactivated or resting state.

T1 sequence (Q9Y5Y9 whole entry): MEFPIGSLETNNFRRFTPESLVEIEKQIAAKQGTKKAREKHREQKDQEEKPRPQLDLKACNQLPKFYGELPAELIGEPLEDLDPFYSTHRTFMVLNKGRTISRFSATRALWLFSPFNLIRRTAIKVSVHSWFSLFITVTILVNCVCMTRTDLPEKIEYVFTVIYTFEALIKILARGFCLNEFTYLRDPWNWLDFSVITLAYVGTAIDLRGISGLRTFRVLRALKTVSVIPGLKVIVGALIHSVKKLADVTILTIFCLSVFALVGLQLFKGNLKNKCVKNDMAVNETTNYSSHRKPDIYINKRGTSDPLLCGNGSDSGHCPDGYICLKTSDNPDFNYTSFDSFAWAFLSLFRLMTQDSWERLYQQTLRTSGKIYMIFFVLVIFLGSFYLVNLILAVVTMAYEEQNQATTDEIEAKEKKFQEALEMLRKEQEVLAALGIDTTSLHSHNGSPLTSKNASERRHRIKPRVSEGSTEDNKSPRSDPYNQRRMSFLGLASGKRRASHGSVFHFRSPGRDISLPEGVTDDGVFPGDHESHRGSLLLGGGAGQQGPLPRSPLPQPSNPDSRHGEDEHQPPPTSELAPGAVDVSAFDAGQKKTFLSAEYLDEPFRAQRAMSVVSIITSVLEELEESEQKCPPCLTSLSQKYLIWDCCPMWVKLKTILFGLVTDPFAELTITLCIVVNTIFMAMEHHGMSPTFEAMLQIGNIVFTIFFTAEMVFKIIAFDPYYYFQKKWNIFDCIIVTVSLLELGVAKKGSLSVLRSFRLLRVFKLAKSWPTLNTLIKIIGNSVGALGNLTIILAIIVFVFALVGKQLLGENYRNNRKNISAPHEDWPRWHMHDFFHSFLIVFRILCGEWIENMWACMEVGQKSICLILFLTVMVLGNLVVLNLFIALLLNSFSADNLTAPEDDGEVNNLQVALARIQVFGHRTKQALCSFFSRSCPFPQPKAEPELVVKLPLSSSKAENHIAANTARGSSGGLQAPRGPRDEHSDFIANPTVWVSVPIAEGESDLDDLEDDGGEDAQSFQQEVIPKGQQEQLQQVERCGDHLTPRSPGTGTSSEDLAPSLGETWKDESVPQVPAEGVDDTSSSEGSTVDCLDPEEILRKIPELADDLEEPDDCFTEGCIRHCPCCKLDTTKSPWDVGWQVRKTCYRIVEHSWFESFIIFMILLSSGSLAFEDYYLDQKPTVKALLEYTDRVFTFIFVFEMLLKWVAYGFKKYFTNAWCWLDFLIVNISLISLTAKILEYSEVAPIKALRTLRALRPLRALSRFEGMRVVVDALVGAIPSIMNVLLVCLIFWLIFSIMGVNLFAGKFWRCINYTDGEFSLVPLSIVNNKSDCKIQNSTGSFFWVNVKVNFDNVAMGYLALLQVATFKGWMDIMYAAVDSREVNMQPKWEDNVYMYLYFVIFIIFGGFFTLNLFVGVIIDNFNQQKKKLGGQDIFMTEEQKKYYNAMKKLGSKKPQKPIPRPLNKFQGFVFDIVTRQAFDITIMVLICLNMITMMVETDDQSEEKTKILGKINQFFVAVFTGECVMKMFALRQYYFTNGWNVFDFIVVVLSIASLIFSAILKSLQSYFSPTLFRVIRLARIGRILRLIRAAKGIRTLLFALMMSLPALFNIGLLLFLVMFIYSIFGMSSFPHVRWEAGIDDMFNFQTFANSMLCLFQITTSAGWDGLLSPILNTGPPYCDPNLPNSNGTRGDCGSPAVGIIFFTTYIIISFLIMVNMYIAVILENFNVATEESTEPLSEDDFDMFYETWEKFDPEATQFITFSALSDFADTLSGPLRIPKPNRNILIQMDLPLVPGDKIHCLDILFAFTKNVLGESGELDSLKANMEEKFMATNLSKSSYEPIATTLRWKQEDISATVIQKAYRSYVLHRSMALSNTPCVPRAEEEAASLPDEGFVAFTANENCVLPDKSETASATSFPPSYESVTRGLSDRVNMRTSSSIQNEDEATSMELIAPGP
T1 sequence (Q9NY72 23-215 partner): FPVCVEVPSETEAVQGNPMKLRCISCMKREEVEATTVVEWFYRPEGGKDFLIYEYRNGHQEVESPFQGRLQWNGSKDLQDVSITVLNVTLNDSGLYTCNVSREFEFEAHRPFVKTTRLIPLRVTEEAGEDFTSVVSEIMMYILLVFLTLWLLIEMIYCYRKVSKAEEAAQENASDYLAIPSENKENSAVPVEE

IC50 [nM]	Structure (SMILES)
≤ 100	Cc1c(C(C)(F)F)nn(CC2(C(F)F)CC(F)(F)C2)c1C(=O)Nc1ccnc(C(N)=O)c1 [SC-311, 4-(3-(1,1-difluoroethyl)-1-((1-(difluoromethyl)-3,3-difluorocyclobutyl)methyl)-4-methyl-1H-pyrazole-5-carboxamido)picolinamide]
≤ 100	CS(=O)(=O)c1cc(NC(=O)c2c(C(F)F)c(C3CC3)nn2CC2CCC(F)(F)C2)ccn1 (stereo not shown) [SC-275, 3-cyclopropyl-1-((3,3-difluorocyclopentyl)methyl)-4-(difluoromethyl)-N-(2-(methylsulfonyl)pyridin-4-yl)-1H-pyrazole-5-carboxamide]
≤ 100	NC(=O)c1cc(NC(=O)c2c(C(F)(F)F)c(C(F)F)nn2CC2CC(F)(F)C2)ccn1 [SC-324, 4-(1-((3,3-difluorocyclobutyl)methyl)-3-(difluoromethyl)-4-(trifluoromethyl)-1H-pyrazole-5-carboxamido)picolinamide]
≤ 100	CCc1nn(CC2CCC(F)(F)C2)c(C(=O)Nc2ccnc(S(C)(=O)=O)c2)c1C(F)(F)F (stereo not shown) [SC-297, 1-((3,3-difluorocyclopentyl)methyl)-3-ethyl-N-(2-(methylsulfonyl)pyridin-4-yl)-4-(trifluoromethyl)-1H-pyrazole-5-carboxamide]
≤ 100	Cc1c(C(C)(F)F)nn(CC2CC(F)(F)C2)c1C(=O)Nc1cccc(S(N)(=O)=O)c1 [SC-295, 1-((3,3-difluorocyclobutyl)methyl)-3-(1,1-difluoroethyl)-4-methyl-N-(3-sulfamoylphenyl)-1H-pyrazole-5-carboxamide]
≤ 100	Cc1c(C(C)(F)F)nn(CC2(C)CC2)c1C(=O)Nc1ccnc(S(N)(=O)=O)c1 [SC-313, 3-(1,1-difluoroethyl)-4-methyl-1-((1-methyleyelopropyl)methyl)-N-(2-sulfamoylpyridin-4-yl)-lH-pyrazole-5-carboxamide]
≤ 100	Cc1nn(CC2CCCCC2)c(C(=O)Nc2ccc(F)c(S(N)(=O)=O)c2)c1C(F)(F)F [SC-238, 1-(cyclohexyimethyl)-N-(4-fluoro-3-sulfamoylphenyl)-3-methyl-4-(trifluoromethyl)-1H-pyrazole-5-carboxamide]
1000 to 10000	Cc1nn(CC2CCC(F)(F)CC2)c(C(=O)Nc2ccnc(C(N)=O)c2F)c1C(F)(F)F [SC-289, 4-(1-((4,4-difluorocyclohexyl)methyl)-3-methyl-4-(trifluoromethyl)-1H-pyrazole-5-carboxamido)-3-fluoropicolinamide]
≤ 100	Cc1c(C(C)(F)F)nn(C[C@@H]2CC[C@H]2C(F)(F)F)c1C(=O)Nc1ccnc(C(N)=O)c1 (single isomer, unassigned) [SC-315a]
100 to 1000	CNC(=O)c1cc(NC(=O)c2c(C(F)(F)F)c(C)nn2CC2CCC(F)(F)CC2)ccn1 [SC-260, 4-(1-((4,4-difluorocyclohexyl)methyl)-3-methyl-4-(trifluoromethyl)-1H-pyrazole-5-carboxamido)-N-methyIpicolinamide]
100 to 1000	Cc1nn(C[C@H]2CCC(F)(F)C2)c(C(=O)Nc2cncc(C(N)=O)c2)c1C(F)(F)F [SC-247S]
≤ 100	NC(=O)c1cc(NC(=O)c2c(C(F)(F)F)c(C3CC3)nn2C[C@@H]2CC[C@H](C(F)(F)F)O2)ccn1 (single isomer, unassigned) [SC-284a]

Continued, compound first:

Structure (SMILES)	IC50 [nM]
Cc1c(C(C)(F)F)nn(CC2(C)CC(F)(F)C2)c1C(=O)Nc1ccnc(C(N)=O)c1 [SC-208, 4-(1-((3,3-difluoro-1-methylcyclobutyl)methyl)-3-(1,1-difluoroethyl)-4-methyl-1H-pyrazole-5-carboxamido)picolinamide]	≤ 100
Cc1c(C(C)(F)F)nn(CC2(C)CC(F)(F)C2)c1C(=O)Nc1ccnc(S(C)(=O)=O)c1 [SC-210, 1-((3,3-difluoro-1-methyleyclobutyl)methyl)-3-(1,1-difluoroethyl)-4-methyl-N-(2-(methylsulfonyl)pyridin-4-yl)-1H-pyrazole-5-carboxamide]	≤ 100
NC(=O)c1cc(NC(=O)c2c(C(F)(F)F)c(C3CC3)nn2CC2CCC2(F)F)ccn1 (single isomer, unassigned) [SC-154a, 4-(3-cyclopropyl-1-((2,2-difluorocyclobutyl)methyl)-4-(trifluoromethyl)-1H-pyrazole-5-carboxamido)picolinamide]	≤ 100
CS(=O)(=O)c1cccc(NC(=O)c2c(C3CC3)cnn2CC2CCCCC2)c1 [SC-19, 2-(cyclohexylmethyl)-4-cyclopropyl-N-(3-methylsulfonylphenyl)pyrazole-3-carboxamide]	100 to 1000
Cc1c(OC(F)F)nn(CC2CCC(F)(F)C2)c1C(=O)Nc1ccnc(C(N)=O)c1 (stereo not shown) [SC-196, 4-(1-((3,3-difluorocyclopentyl)methyl)-3-(difluoromethoxy)-4-methyl-1H-pyrazole-5-carboxamido)picolinamide]	≤ 100
CS(=O)(=O)c1ccc(F)c(NC(=O)c2c(C(F)(F)F)cnn2CC2CCC(F)(F)CC2)c1 [SC-22, 1-[(4,4-difluorocyclohexyl)methyl]-N-(2-fluoro-5-methanesulfonylphenyl)-4-(trifluoromethyl)-1H-pyrazole-5-carboxamide]	1000 to 10000
Cc1c(C(C)(F)F)nn(CC2CCC(F)(F)C2)c1C(=O)Nc1ccnc(C(N)=O)c1 (stereo not shown) [SC-167, 4-(1-((3,3-difluorocyclopentyl)methyl)-3-(1,1-difluoroethyl)-4-methyl-1H-pyrazole-5-carboxamido)picolinamide]	≤ 100
Cc1c(C(F)F)nn(CC2CCC(F)(F)CC2)c1C(=O)Nc1ccnc(C(N)=O)c1 [SC-163, 4-(1-((4,4-difluorocyclohexyl)methyl)-3-(difluoromethyl)-4-methyl-1H-pyrazole-5-carboxamido)picolinamide]	≤ 100
Cc1c(C(C)(F)F)nn(C[C@@]2(C)CCC(F)(F)C2)c1C(=O)Nc1ccnc(S(N)(=O)=O)c1 (single isomer, unassigned) [SC-212b]	≤ 100
CC1CC(Cn2nc(C3CC3)c(C(F)(F)F)c2C(=O)Nc2ccnc(C(N)=O)c2)CCO1 (stereo not shown) [SC-135, 4-(3-cyclopropyl-1-((2-methyltetraliydro-2H-pyran-4-yl)methyl)-4-(trifluoromethyl)-1H-pyrazole-5-carboxamido)picolinamide]	≤ 100
COCCOC[C@@H]1CCCC[C@@H]1Cn1nc(C(C)(F)F)c(C)c1C(=O)Nc1ccnc(C(N)=O)c1 (relative stereo) [SC-223, 4-(3-(1,1-difluoroethyl)-1-((2-((2-methoxyethoxy)methyl)cyclohexyl)methyl)-4-methyl-1H-pyrazole-5-ca±oxamido)picolinamide]	≤ 100
NC(=O)c1ccc(NC(=O)c2c(C(F)(F)F)cnn2CC2CCC(F)(F)CC2)cc1F [SC-21, N-(4-carbamoyl-3-fluorophenyl)-1-[(4,4-difluorocyclohexyl)methyl]-4-(trifluoromethyl)-1H-pyrazole-5-carboxamide]	1000 to 10000
Cc1c(C(C)(F)F)nn(CC2C[C@H]2C(F)(F)F)c1C(=O)Nc1ccnc(C(N)=O)c1 (single isomer, unassigned) [SC-204a]	≤ 100
NC(=O)c1cccc(NC(=O)c2c(C(F)(F)F)cnn2CC2CCC(F)(F)CC2)c1 [SC-41, N-(3-carbamoylphenyl)-2-[(4,4-difluorocyclohexyl)methyl]-4-(trifluoromethyl)pyrazole-3-carboxamide]	100 to 1000
CC(F)(F)c1nn(CC2CC(F)(F)C2)c(C(=O)Nc2ccnc(C(N)=O)c2)c1C(F)(F)F [SC-180, 4-(1-((3,3-difluorocyclobutyl)methyl)-3-(1,1-difluoroethyl)-4-(trifluoromethyl)-1H-pyrazole-5-carboxamido)picolinamide]	≤ 100
CS(=O)(=O)c1cccc(NC(=O)c2c(C(F)(F)F)cnn2CC2CCOCC2)c1 [SC-28, N-(3-methylsulfonylphenyl)-2-(oxan-4-ylmethyl)-4-(trifluoromethyl)pyrazole-3-carboxamide]	1000 to 10000
